Results from paper PMC2877818, “Thermodynamics of RTA3 peptide binding to membranes and consequences for antimicrobial activity^” (Biochimica et Biophysica Acta, 2010).
Like-named read-outs stand apart in the source and are kept apart here.

How the values were obtained:
E. coli UB 122 = type: cell-based; details: broth microdilution, Mueller Hinton (plus cations) broth, 24 hours at 37 °C; triplicate, averaged
[1] = test system: E. coli 122 inner membrane; test: Inner membrane permeabilization to ONPG; details: read-out: IM permeabilization: peptide concentration resulting in half-maximal translocated substrate turnover, PBS pH 7.4, 30 °C, triplicate
Protocol: Inner membrane permeability was determined by measuring the β-galactosidase activity of lactose permease-deficient E. coli at 30 °C using ONPG as substrate. E. coli cells overexpressing the β- galactosidase enzyme (E. coli 122) were grown to logarithmic phase, washed, and resuspended (10^8 CFU/mL) in phosphate buffered saline pH 7.4. About 90 µL of 1 × 10^7 CFU of the test organism containing 0.4 mg/mL ONPG was then added to 96-well microtitre plates containing serial twofold dilutions of antimicrobial peptides. The production of o-nitrophenol was monitored spectrophotometrically at 420 nm. An equivalent volume of water replaced the peptide solution in the control assay. All data were measured in triplicate.

E. coli 345-2 = type: cell-based; details: broth microdilution, Mueller Hinton (plus cations) broth, 24 hours at 37 °C; triplicate, averaged
E. coli ATCC 25922 = type: cell-based; details: broth microdilution, Mueller Hinton (plus cations) broth, 24 hours at 37 °C, no visible growth; triplicate, averaged
Protocol: (§1) Minimum inhibitory concentrations (MIC) of the peptides were determined by broth microdilution according to the Clinical and Laboratory Standards Institute. About 90 µL of 0.5–1 × 10^6 CFU/mL of Pseudomonas aeruginosa ATCC 27853 and E. coli ATCC 25922 in Mueller Hinton media (plus cations) broth (BD, Baltimore, MD, USA) was incubated in 96-well microtitre plates with serial twofold dilutions of the peptides. Minimum inhibitory concentrations (MICs) were defined as the lowest peptide concentration with no visible growth of bacteria after 24 hours at 37 °C. All measurements were made in triplicate and averaged.

P. aeruginosa ATCC 27853 = type: cell-based, Pseudomonas aeruginosa; details: broth microdilution, Mueller Hinton (plus cations) broth, 24 hours at 37 °C, no visible growth; triplicate, averaged
Protocol: as §1

[2] = test system: E. coli 345-2 outer membrane; test: Outer membrane permeabilization to nitrocefin; details: read-out: OM permeabilization: peptide concentration resulting in half-maximal translocated substrate turnover, triplicate
Protocol: Outer and inner membrane permeabilities were determined as described previously [16]. E. coli cells overexpressing β-lactamase were grown to logarithmic phase, washed, and resuspended (10^8 CFU/mL) in 10 mM HEPES buffer pH 7.4. About 90 µL of 1 × 10^7 CFU of the test organism (E. coli 345-2) containing 20 µg/mL nitrocefin was then added to 96-well microtitre plates containing serial twofold dilutions of antimicrobial peptides. Nitrocefin cleavage was monitored by measuring A490. All data were measured in triplicate.

Polymyxin E
MIC E. coli UB 122 (E. coli UB 122): 0.5 µM
EC50 ([1]; +Mg2+ (0.4 mM MgCl2), ONPG): > 100000 nM
EC50 ([1]; −Mg2+, ONPG 0.4 mg/mL, 420 nm): > 40000 nM
MIC E. coli 345-2 (E. coli 345-2): 0.5 µM
MIC E. coli ATCC 25922 (E. coli ATCC 25922): 1 µM
MIC P. aeruginosa ATCC 27853 (P. aeruginosa ATCC 27853): 2 µM
EC50 ([2]; +Mg2+ (0.4 mM MgCl2), nitrocefin, 10 mM HEPES pH 7.4): 1800 nM
EC50 ([2]; −Mg2+, nitrocefin 20 µg/mL, 10 mM HEPES pH 7.4, A490): 2000 nM
